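Five concentrations, 48 hours, 96-well plates. TGI: concentration producing complete growth inhibition.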
Legend:
Assay in all cases: NCI anticancer screen, dose series, 48 h
MALME-3M melanoma = tested on: MALME-3M melanoma
HCT-15 colon = tested on: HCT-15 colon
HT29 colon = tested on: HT29 colon
ACHN renal = tested on: ACHN renal
SK-MEL-5 melanoma = tested on: SK-MEL-5 melanoma
OVCAR-8 ovarian = tested on: OVCAR-8 ovarian
NCI-H23 lung = tested on: NCI-H23 lung
SW-620 colon = tested on: SW-620 colon
BT-549 breast = tested on: BT-549 breast
UO-31 renal = tested on: UO-31 renal

| Compound | TGI (MALME-3M melanoma) | TGI (HCT-15 colon) | TGI (HT29 colon) | TGI (ACHN renal) | TGI (SK-MEL-5 melanoma) | TGI (OVCAR-8 ovarian) | TGI (NCI-H23 lung) | TGI (SW-620 colon) | TGI (BT-549 breast) | TGI (UO-31 renal) |
| --- | --- | --- | --- | --- | --- | --- | --- | --- | --- | --- |
| OC1(c2ccc3ccccc3c2)c2ccc3ccccc3c2C2=NCCN21 (stereo unspecified) | > 100 µM | > 100 µM | > 100 µM | > 100 µM | > 100 µM | 82.2 µM | > 100 µM | > 100 µM | > 100 µM | > 100 µM |
| O=c1cc(-c2nc3ccccc3[nH]2)[nH]c2nc(-c3nc4ccccc4[nH]3)cc(-c3ccc(Cl)cc3)c12 | 71.2 µM | 25.5 µM | 42.5 µM | 41.6 µM | 30.9 µM | > 100 µM | > 100 µM | 54.1 µM | > 100 µM | 33 µM |
| CCOC(=O)[C@H]1C[C@]23CN(C(=O)OC(C)(C)C)CC[C@H]2CCC2(SCCCS2)[C@@H]3N1C | 74.6 µM | > 100 µM | 53.3 µM | > 100 µM | 37.4 µM | > 100 µM | > 100 µM | > 100 µM | > 100 µM | > 100 µM |
| Cc1ccc(S(=O)(=O)NCCSS(=O)(=O)c2ccc(C)cc2)cc1 | – | 37.8 µM | 53.4 µM | > 100 µM | 43.1 µM | > 100 µM | > 100 µM | 46.5 µM | – | 61.7 µM |
| CCOc1cc(NC(C)=O)ccc1C(=O)NN1C(=O)CSC1c1ccc(O)c(OC)c1 (stereo unspecified) | > 100 µM | > 100 µM | > 100 µM | > 100 µM | > 100 µM | > 100 µM | > 100 µM | > 100 µM | 98.6 µM | 29.5 µM |
| C=CCC1=CC2(OC)C(=O)C(OC)(OC)C1C1C(OC)(OC)C(=O)C(OC)=CC12CC=C (stereo unspecified) | > 100 µM | > 100 µM | > 100 µM | > 100 µM | > 100 µM | > 100 µM | > 100 µM | > 100 µM | > 100 µM | > 100 µM |
| CCOc1ccc2c(c1)NC(=O)C(C1OC(c3ccccc3)=CC1=O)S2 (stereo unspecified) | 44.5 µM | 69.2 µM | 39.6 µM | > 100 µM | 39.2 µM | 55.7 µM | 94.2 µM | 88.8 µM | 65.9 µM | 90.3 µM |
| FC(F)(F)C1=NC(=NNc2nnc(-c3ccccc3)c(-c3ccccc3)n2)N=C(C(F)(F)F)C1 | > 100 µM | > 100 µM | > 100 µM | – | > 66 µM | > 100 µM | > 100 µM | > 100 µM | – | 29.1 µM |
| CC(C)Cc1cccc(C(C)C)c1NC(=O)CCC(=O)N/N=C1\C(=N/NC(=O)CCC(=O)Nc2c(C(C)C)cccc2C(C)C)C(c2ccc3c(c2)OCO3)Oc2ccccc21 (stereo unspecified) | – | > 100 µM | > 100 µM | > 100 µM | > 100 µM | > 100 µM | > 100 µM | > 100 µM | – | > 100 µM |
| CN(C)CCC(C(=O)C(C)(C)C)c1ccccn1 (stereo unspecified) | > 100 µM | > 100 µM | > 100 µM | > 100 µM | > 100 µM | > 100 µM | > 100 µM | > 100 µM | > 100 µM | > 100 µM |
| C=C1C(=O)OC2/C=C(\C)CC(O)/C=C(/CO)CC(OC(=O)/C(C)=C/C)C12 (stereo unspecified) | 66.6 µM | 151 µM | 303 µM | – | 44.1 µM | 122 µM | 136 µM | 50.3 µM | – | 439 µM |
| C[C@H](O)C(=O)SC[C@H](NC(=O)CC[C@@H](N)C(=O)O)C(=O)NCC(=O)O | > 100 µM | > 100 µM | > 100 µM | > 100 µM | > 100 µM | > 100 µM | > 100 µM | > 100 µM | – | > 100 µM |
